Reference: ChEMBL document CHEMBL4732190, “Identification of Potent and Long-Acting Single-Chain Peptide Mimetics of Human Relaxin-2 for Cardiovascular Diseases” (J Med Chem, 2021)
Values after ≈ are worked out from the molar mass of the structure shown. *1 amine or outer side, *2 acyl side, *3 side chain or, on linkers, in order; H or OH if unused. Where a SMILES comes first, the peptide text is derived from it. [ ]: non-standard residue; d: D form. The star is where a group is joined. X5 = CCCCCCCCCCCCCCCCCCC(=O)[C@H](CCC(=O)O)NC(=O)[C@H](CCC(=O)O)NC(=O)[C@H](CCC(=O)O)NC(=O)[C@H](CCCCN)NC(=O)COCC(=O)NCCCOCCOCCOCCCNC(=O)COCC(=O)NCCCOCCOCCOCCCNC(=O)COCC(=O)NCCCOCCOCCOCCCN*; PEG11 = NCCOCCOCCOCCOCCOCCOCCOCCOCCOCCOCCOCCC(=O)O; X3 = CCCCCCCCCCCCCCCCCCC(=O)[C@H](CCC(N)=O)N*; X6 = CCCCCCCCCCCCCCCCCCC(=O)[C@H](CCC(=O)O)N*; X2 = CCCCCCCCCCCCCCCCCC(=O)[C@H](CCC(N)=O)N*; β2hAla(2S) = C[C@@H](CN[*:1])C(=O)[*:2]; hLys = NCCCCC[C@H](N)C(=O)O; Nle = CCCC[C@H](N)C(=O)O; AEEA = NCCOCCOCC(=O)O

Tests used:
[1] = Half life in Sprague-Dawley rat at 1 mg/kg, iv measured upto 72 hrs by LC-HRMS analysis; type: ADME, organism-based; conditions: in vivo
[2] = biological target: T1, Relaxin receptor 1 (Homo sapiens) (UniProt Q9HBX9); experiment: Agonist activity at RXFP1 endogenously expressed in human OVCAR-5 cells assessed as increase in IBMX-induced cAMP accumulation pretreated with IBMX for 40 mins followed by compound addition and measured after 30 mins by HTRF assay relative to relaxin; type: functional, cell-based; conditions: filed as agonist
T1 sequence (whole entry): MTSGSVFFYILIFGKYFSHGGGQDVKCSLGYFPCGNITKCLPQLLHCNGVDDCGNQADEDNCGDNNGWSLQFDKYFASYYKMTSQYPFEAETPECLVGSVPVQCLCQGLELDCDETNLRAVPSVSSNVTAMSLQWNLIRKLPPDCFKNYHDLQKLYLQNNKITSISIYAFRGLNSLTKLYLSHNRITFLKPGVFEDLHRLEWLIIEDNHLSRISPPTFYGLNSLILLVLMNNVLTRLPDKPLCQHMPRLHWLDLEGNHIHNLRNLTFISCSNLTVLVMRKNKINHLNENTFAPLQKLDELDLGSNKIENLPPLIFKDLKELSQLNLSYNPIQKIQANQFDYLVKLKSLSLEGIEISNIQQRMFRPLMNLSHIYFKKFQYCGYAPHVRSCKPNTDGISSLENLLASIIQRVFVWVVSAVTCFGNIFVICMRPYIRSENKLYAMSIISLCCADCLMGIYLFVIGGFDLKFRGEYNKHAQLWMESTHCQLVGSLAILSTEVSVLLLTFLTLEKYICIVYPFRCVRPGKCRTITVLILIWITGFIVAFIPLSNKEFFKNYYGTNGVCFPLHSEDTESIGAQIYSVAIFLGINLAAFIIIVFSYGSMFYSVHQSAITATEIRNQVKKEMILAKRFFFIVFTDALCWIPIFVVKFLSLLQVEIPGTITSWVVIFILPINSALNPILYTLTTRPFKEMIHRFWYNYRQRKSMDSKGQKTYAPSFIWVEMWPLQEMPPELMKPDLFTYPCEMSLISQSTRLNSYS

Relaxin receptor 1 [3] = biological target: T2, Relaxin receptor 1 (Homo sapiens, UniProt Q9HBX9); experiment: Agonist activity at RXFP1 endogenously expressed in human OVCAR-5 cells assessed as increase in IBMX-induced cAMP accumulation pretreated with IBMX for 40 mins followed by compound addition and measured after 30 mins by HTRF assay; type: functional, cell-based
T2 sequence (Q9HBX9 whole entry): T1 sequence (whole entry)

[4] = biological target: T1, Relaxin receptor 1 (Homo sapiens); experiment: Agonist activity at RXFP1 endogenously expressed in human OVCAR-5 cells assessed as increase in IBMX-induced cAMP accumulation pretreated with IBMX for 40 mins followed by compound addition and measured after 30 mins in presence of 2 % HSA by HTRF assay relative to control; type: functional, cell-based; conditions: filed as agonist
[5] = Bioavailability in Sprague-Dawley rat at 3 mg/kg, sc measured upto 72 hrs by LC-HRMS analysis; type: ADME, organism-based; conditions: in vivo
Relaxin receptor 1 [6] = biological target: T2, Relaxin receptor 1; experiment: Agonist activity at RXFP1 endogenously expressed in human OVCAR-5 cells assessed as increase in IBMX-induced cAMP accumulation pretreated with IBMX for 40 mins followed by compound addition and measured after 30 mins in presence of 2 % HSA by HTRF assay; type: functional, cell-based
[7] = biological target: T1, Relaxin receptor 1 (Homo sapiens); experiment: Selectivity ratio of EC50 for agonist activity at RXFP1 endogenously expressed in human OVCAR-5 cells in presence of 2 % HSA to EC50 for agonist activity at RXFP1 endogenously expressed in human OVCAR-5 cells in absence of HSA; type: cell-based
[8] = Stability in human plasma assessed as parent compound remaining level at 5 uM remaining after 4 hrs; type: ADME, cell-free; conditions: read-out: Stabilty
[9] = Stability in rat plasma assessed as parent compound remaining level at 5 uM remaining after 4 hrs; type: ADME, cell-free; conditions: read-out: Stabilty
[10] = Aqueous solubility of compound in phosphate buffer at pH 7.4 measured after 24 hrs by UPLC analysis; type: physicochemical
[11] = Positive chronotropic activity in pithed Sprague-Dawley rat assessed as increase in heart rate at 1000 mg/kg, iv administered as bolus dose measured after 60 mins post dose; type: ADME, organism-based; conditions: in vivo, 1 h
[12] = Positive chronotropic activity in pithed Sprague-Dawley rat assessed as increase in heart rate at 20 to 1000 mg/kg, iv administered as bolus dose measured after 60 mins post dose; type: ADME, organism-based; conditions: in vivo, 1 h, dose 20-1000 mg/kg

Compound	half-life [1]	Emax [2]	EC50 (Relaxin receptor 1 [3])	Emax [4]	bioavailability [5]	EC50 (Relaxin receptor 1 [6])	Ratio EC50 [7]	remaining at 4 h, 5 µM [8]	remaining at 4 h, 5 µM [9]	solubility at 24 h [10]	Emin [11]	Activity [12]
CCCCCCCCCCCCCCCCCC(=O)[C@H](CCC(N)=O)NC(=O)[C@H](CCC(=O)O)NC(=O)[C@H](CCC(=O)O)NC(=O)[C@H](CCCCN)NC(=O)CCOCCOCCOCCOCCOCCOCCOCCOCCOCCOCCOCCNC(=O)[C@H](CCCCN)NC(=O)[C@H](CCCNC(=N)N)NC(=O)[C@@H](C)CNC(=O)[C@H](CO)NC(=O)[C@H](Cc1c[nH]c2ccccc12)NC(=O)[C@@H](NC(=O)[C@H](CO)NC(=O)[C@H](CCCC)NC(=O)[C@H](CCSC)NC(=O)CNC(=O)[C@H](CCC(=O)O)NC(=O)[C@@H](C)CNC(=O)[C@@H](C)CNC(=O)[C@@H](NC(=O)[C@H](CCC(N)=O)NC(=O)[C@H](C)NC(=O)[C@H](CCCNC(=N)N)NC(=O)[C@@H](NC(=O)[C@H](CCCCN)NC(=O)[C@H](CCC(=O)O)NC(=O)[C@H](CCCNC(=N)N)NC(=O)[C@H](CCC(=O)O)NC(=O)CNC(=O)[C@H](CCC(=O)O)NC(=O)[C@H](CC(C)C)NC(C)=O)C(C)C)[C@@H](C)CC)[C@@H](C)O (Ac-LEGEREKVRAQI[β2hAla(2S)][β2hAla(2S)]EGM[Nle]STWS[β2hAla(2S)]RK[PEG11]KEE-X2)	4.8 h	79%	1 nM	80%	100%	31 nM	31					
CCCCCCCCCCCCCCCCCCC(=O)[C@H](CCC(N)=O)NC(=O)[C@H](CCC(=O)O)NC(=O)[C@H](CCC(=O)O)NC(=O)[C@H](CCCCN)NC(=O)CCOCCOCCOCCOCCOCCOCCOCCOCCOCCOCCOCCNC(=O)[C@H](CCCCCNC(C)=O)NC(=O)[C@H](CCCCN)NC(=O)[C@@H](C)CNC(=O)[C@@H](C)CNC(=O)[C@@H](NC(=O)[C@H](CCCCCNC(C)=O)NC(=O)[C@H](CCCCN)NC(=O)[C@H](C)NC(=O)[C@H](CCCNC(=N)N)NC(=O)[C@@H](NC(=O)[C@H](CCCCN)NC(=O)[C@H](CCC(=O)O)NC(=O)[C@H](CCCNC(=N)N)NC(=O)[C@H](CCC(=O)O)NC(=O)CNC(=O)[C@H](CCC(=O)O)NC(=O)[C@H](CC(C)C)NC(C)=O)C(C)C)[C@@H](C)CC (Ac-LEGEREKVRAK[hLys](Ac)I[β2hAla(2S)][β2hAla(2S)]K[hLys](Ac)[PEG11]KEE-X3)	43 h	95%	0.6 nM	84%		9 nM	15	93%	80%	5400 µg/mL (≈ 1570 µM)		
CCCCCCCCCCCCCCCCCCC(=O)[C@H](CCC(=O)O)NC(=O)[C@H](CCC(=O)O)NC(=O)[C@H](CCC(=O)O)NC(=O)[C@H](CCCCN)NC(=O)COCC(=O)NCCCOCCOCCOCCCNC(=O)COCC(=O)NCCCOCCOCCOCCCNC(=O)COCC(=O)NCCCOCCOCCOCCCNC(=O)[C@H](CCCCCNC(C)=O)NC(=O)[C@H](CCCCN)NC(=O)[C@H](CCCCN)NC(=O)[C@H](CCCNC(=N)N)NC(=O)[C@@H](C)CNC(=O)[C@H](CO)NC(=O)[C@H](Cc1c[nH]c2ccccc12)NC(=O)[C@@H](NC(=O)[C@H](CO)NC(=O)[C@H](CCCCCNC(C)=O)NC(=O)[C@H](CCCCN)NC(=O)[C@H](CCCC)NC(=O)[C@H](CCSC)NC(=O)CNC(=O)[C@H](CCC(=O)O)NC(=O)[C@@H](C)CNC(=O)[C@@H](C)CNC(=O)[C@@H](NC(=O)[C@H](CCCCCNC(C)=O)NC(=O)[C@H](CCCCN)NC(=O)[C@H](C)NC(=O)[C@H](CCCNC(=N)N)NC(=O)[C@@H](NC(=O)[C@H](CCCCN)NC(=O)[C@H](CCC(=O)O)NC(=O)[C@H](CCCNC(=N)N)NC(=O)[C@H](CCC(=O)O)NC(=O)CNC(=O)[C@H](CCC(=O)O)NC(=O)[C@H](CC(C)C)NC(C)=O)C(C)C)[C@@H](C)CC)[C@@H](C)O (Ac-LEGEREKVRAK[hLys](Ac)I[β2hAla(2S)][β2hAla(2S)]EGM[Nle]K[hLys](Ac)STWS[β2hAla(2S)]RKK[hLys](Ac)-X5)	3.96 h	88%	0.4 nM	85%		24.5 nM	61					
CCCCCCCCCCCCCCCCCC(=O)[C@H](CCC(N)=O)NC(=O)[C@H](CCC(=O)O)NC(=O)[C@H](CCC(=O)O)NC(=O)[C@H](CCCCN)NC(=O)COCCOCCNC(=O)COCCOCCNC(=O)COCCOCCNC(=O)[C@H](CCCCCNC(C)=O)NC(=O)[C@H](CCCCN)NC(=O)[C@H](CCCCN)NC(=O)[C@H](CCCNC(=N)N)NC(=O)[C@@H](C)CNC(=O)[C@H](CO)NC(=O)[C@H](Cc1c[nH]c2ccccc12)NC(=O)[C@@H](NC(=O)[C@H](CO)NC(=O)[C@H](CCCCCNC(C)=O)NC(=O)[C@H](CCCCN)NC(=O)[C@H](CCCC)NC(=O)[C@H](CCSC)NC(=O)CNC(=O)[C@H](CCC(=O)O)NC(=O)[C@@H](C)CNC(=O)[C@@H](C)CNC(=O)[C@@H](NC(=O)[C@H](CCCCCNC(C)=O)NC(=O)[C@H](CCCCN)NC(=O)[C@H](C)NC(=O)[C@H](CCCNC(=N)N)NC(=O)[C@@H](NC(=O)[C@H](CCCCN)NC(=O)[C@H](CCC(=O)O)NC(=O)[C@H](CCCNC(=N)N)NC(=O)[C@H](CCC(=O)O)NC(=O)CNC(=O)[C@H](CCC(=O)O)NC(=O)[C@H](CC(C)C)NC(C)=O)C(C)C)[C@@H](C)CC)[C@@H](C)O (Ac-LEGEREKVRAK[hLys](Ac)I[β2hAla(2S)][β2hAla(2S)]EGM[Nle]K[hLys](Ac)STWS[β2hAla(2S)]RKK[hLys](Ac)[AEEA][AEEA][AEEA]KEE-X2)	3.9 h	89%	0.2 nM	89%		18.4 nM	92	111%	114%	11400 µg/mL (≈ 2330 µM)	26%	Dose-dependent effect
CCCCCCCCCCCCCCCCCCC(=O)[C@H](CCC(=O)O)NC(=O)[C@H](CCC(=O)O)NC(=O)[C@H](CCC(=O)O)NC(=O)[C@H](CCCCN)NC(=O)COCCOCCNC(=O)COCCOCCNC(=O)COCCOCCNC(=O)[C@H](CCCCCNC(C)=O)NC(=O)[C@H](CCCCN)NC(=O)[C@H](CCCCN)NC(=O)[C@H](CCCNC(=N)N)NC(=O)[C@@H](C)CNC(=O)[C@H](CO)NC(=O)[C@H](Cc1c[nH]c2ccccc12)NC(=O)[C@@H](NC(=O)[C@H](CO)NC(=O)[C@H](CCCCCNC(C)=O)NC(=O)[C@H](CCCCN)NC(=O)[C@H](CCCC)NC(=O)[C@H](CCSC)NC(=O)CNC(=O)[C@H](CCC(=O)O)NC(=O)[C@@H](C)CNC(=O)[C@@H](C)CNC(=O)[C@@H](NC(=O)[C@H](CCCCCNC(C)=O)NC(=O)[C@H](CCCCN)NC(=O)[C@H](C)NC(=O)[C@H](CCCNC(=N)N)NC(=O)[C@@H](NC(=O)[C@H](CCCCN)NC(=O)[C@H](CCC(=O)O)NC(=O)[C@H](CCCNC(=N)N)NC(=O)[C@H](CCC(=O)O)NC(=O)CNC(=O)[C@H](CCC(=O)O)NC(=O)[C@H](CC(C)C)NC(C)=O)C(C)C)[C@@H](C)CC)[C@@H](C)O (Ac-LEGEREKVRAK[hLys](Ac)I[β2hAla(2S)][β2hAla(2S)]EGM[Nle]K[hLys](Ac)STWS[β2hAla(2S)]RKK[hLys](Ac)[AEEA][AEEA][AEEA]KEE-X6)	3.4 h	88%	0.1 nM	82%		19.8 nM	198					
